Molecular target: T1, hSCN9A (Homo sapiens, UniProt Q15858)
T1 construct: expressed in transfected cells
Test: Whole-cell patch-clamp electrophysiology (conventional or PatchXpress), HEK cells expressing hSCN9A, estimated IC-50
Format: cell-based
Settings: estimated IC-50, HEK cells expressing hSCN9A; class symbols or bounds; read-out: SCN9A EIC-50
Experimental: Human Embryonic Kidney (HEK) cells were transfected with hSCN3A or hSCN9A constructs using lipofectamine reagent (Invitrogen), using standard techniques. Cells stably expressing the hSCN3A or hSCN9A constructs were identified by their resistance to G-418 (400 μg/ml). Clones were screened for expression using the whole-cell voltage-clamp technique. HEK cells stably transfected with hSCN3A or hSCN9A were maintained in DMEM medium supplemented with 10% heat-inactivated fetal bovine serum and 400 μg/ml G418 sulfate in an incubator at 37° C. with a humidified atmosphere of 10% CO2. For HTS, cells were harvested from flasks by trypsinization and replated in an appropriate multi-well plate (typically 96 or 384 wells/plate) such that confluence would be achieved within 24 hours of plating. For electrophysiological studies, cells were removed from the culture flask by brief trypsinization and replated at low density onto glass cover slips. Cells were typically used for electrophysiological experiments within 24 to 72 h after plating. Cover slips containing HEK cells expressing hSCN3A or hSCN9A were placed in a bath on the stage of an inverted microscope and perfused (approximately 1 ml/min) with extracellular solution of the following composition: 138 mM NaCl, 2 mM CaCl2, 5.4 mM KCl, 1 mM MgCl2, 10 mM glucose, and 10 mM HEPES, pH 7.4, with NaOH. […] All recordings were made at room temperature (22-24° C.) using AXOPATCH 200B amplifiers and PCLAMP software (Axon Instruments, Burlingame, Calif.) or PatchXpress 7000 hardware and associated software (Axon Instruments, Burlingame, Calif.). hSCN3A or hSCN9A currents in HEK cells were measured using the whole-cell configuration of the patch-clamp technique (Hamill et al., 1981). […] As a result, voltage errors were negligible and no correction was applied. Current records were acquired at 20 to 50 KHz and filtered at 5 to 10 KHz. HEK cells stably transfected with hSCN3A or hSCN9A were viewed under Hoffman contrast optics and placed in front of an array of flow pipes emitting either control or compound-containing extracellular solutions. All compounds were dissolved in dimethyl sulfoxide to make 10 mM stock solutions, which were then diluted into extracellular solution to attain the final concentrations desired. […] The voltage-dependence of inactivation was determined by applying a series of depolarizing prepulses (8 sec long in 10 mV increments) from a negative holding potential. The voltage was then immediately stepped to 0 mV to assess the magnitude of the sodium current. Currents elicited at 0 mV were plotted as a function of prepulse potential to allow estimation of the voltage midpoint of inactivation (V1/2). Cells were then voltage clamped at the empirically determined V1/2. Compounds were tested for their ability to inhibit hSCN3A or hSCN9A sodium channels by activating the channel with a 20 msec voltage step to 0 mV following an 8 second conditioning prepulse to the empirically determined V1-2 (Table B). Compound effect (% inhibition) was determined by difference in current amplitude before and after application of test compounds. […] In some cases electrophysiological assays were conducted with PatchXpress 7000 hardware and associated software (Molecular Devices Corp) (Table B). All assay buffers and solutions were identical to those used in conventional whole-cell voltage clamp experiments described above. hSCN3A or hSCN9A containing cells were grown as above to 50%-80% confluency and harvested by trypsinization. Trypsinized cells were washed and resuspended in extracellular buffer at a concentration of 1×10^6 cells/ml. The onboard liquid handling facility of the PatchXpress was used for dispensing cells and application of test compounds. Determination of the voltage midpoint of inactivation was as described for conventional whole-cell recordings. Cells were then voltage-clamped to the empirically determined V1/2 and current was activated by a 20 msec voltage step to 0 mV.

T1 sequence (Q15858 whole entry): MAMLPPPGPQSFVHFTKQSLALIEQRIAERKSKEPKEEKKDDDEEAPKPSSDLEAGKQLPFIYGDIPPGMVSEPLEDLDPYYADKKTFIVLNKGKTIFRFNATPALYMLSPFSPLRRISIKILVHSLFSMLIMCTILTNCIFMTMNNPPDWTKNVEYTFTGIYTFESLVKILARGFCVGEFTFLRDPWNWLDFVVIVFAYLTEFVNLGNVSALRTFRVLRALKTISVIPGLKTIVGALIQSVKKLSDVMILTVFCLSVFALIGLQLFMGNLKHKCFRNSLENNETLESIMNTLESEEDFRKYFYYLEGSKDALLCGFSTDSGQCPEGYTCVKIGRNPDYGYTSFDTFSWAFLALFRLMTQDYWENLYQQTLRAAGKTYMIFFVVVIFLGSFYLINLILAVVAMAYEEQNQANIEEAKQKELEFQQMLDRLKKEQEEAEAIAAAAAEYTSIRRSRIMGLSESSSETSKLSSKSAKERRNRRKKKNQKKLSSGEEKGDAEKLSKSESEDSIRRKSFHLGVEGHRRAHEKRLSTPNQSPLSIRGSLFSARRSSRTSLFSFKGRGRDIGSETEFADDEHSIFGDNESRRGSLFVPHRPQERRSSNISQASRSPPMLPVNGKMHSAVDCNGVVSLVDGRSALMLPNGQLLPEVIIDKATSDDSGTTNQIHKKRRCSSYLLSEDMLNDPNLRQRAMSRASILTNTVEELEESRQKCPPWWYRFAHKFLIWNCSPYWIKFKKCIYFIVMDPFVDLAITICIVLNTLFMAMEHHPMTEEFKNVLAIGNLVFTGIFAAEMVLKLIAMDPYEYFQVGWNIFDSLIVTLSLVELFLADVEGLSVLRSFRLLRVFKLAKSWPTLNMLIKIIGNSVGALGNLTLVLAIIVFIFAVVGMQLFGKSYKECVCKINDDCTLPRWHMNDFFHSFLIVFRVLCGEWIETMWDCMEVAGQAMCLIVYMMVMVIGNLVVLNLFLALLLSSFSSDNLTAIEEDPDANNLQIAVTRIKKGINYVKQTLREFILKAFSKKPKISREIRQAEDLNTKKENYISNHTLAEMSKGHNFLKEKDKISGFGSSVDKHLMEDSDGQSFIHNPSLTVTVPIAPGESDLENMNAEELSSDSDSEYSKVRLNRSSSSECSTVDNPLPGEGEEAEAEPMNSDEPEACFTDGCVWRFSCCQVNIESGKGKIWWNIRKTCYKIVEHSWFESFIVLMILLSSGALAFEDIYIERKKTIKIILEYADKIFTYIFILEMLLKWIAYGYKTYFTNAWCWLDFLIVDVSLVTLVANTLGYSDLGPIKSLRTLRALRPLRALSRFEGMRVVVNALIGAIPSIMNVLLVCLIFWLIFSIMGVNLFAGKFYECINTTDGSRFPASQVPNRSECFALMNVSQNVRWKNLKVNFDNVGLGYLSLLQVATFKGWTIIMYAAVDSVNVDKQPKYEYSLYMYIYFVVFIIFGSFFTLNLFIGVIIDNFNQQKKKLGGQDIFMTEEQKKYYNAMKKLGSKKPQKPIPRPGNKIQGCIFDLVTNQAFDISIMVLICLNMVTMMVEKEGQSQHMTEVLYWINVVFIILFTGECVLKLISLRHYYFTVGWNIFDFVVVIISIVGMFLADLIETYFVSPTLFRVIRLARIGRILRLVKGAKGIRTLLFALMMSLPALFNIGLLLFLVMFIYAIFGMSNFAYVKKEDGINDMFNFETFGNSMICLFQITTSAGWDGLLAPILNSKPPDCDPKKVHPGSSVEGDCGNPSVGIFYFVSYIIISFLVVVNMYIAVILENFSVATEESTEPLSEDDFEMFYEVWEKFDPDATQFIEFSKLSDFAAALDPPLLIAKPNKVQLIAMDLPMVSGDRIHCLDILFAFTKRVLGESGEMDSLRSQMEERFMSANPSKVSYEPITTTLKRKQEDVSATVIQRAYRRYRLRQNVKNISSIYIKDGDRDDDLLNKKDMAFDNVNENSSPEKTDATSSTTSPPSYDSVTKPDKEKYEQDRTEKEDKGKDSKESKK

Row | Compound | IC50 [nM]
1 | CC(C)(C)c1ccc(OCc2csc(Nc3ccc(S(=O)(=O)Nc4nccs4)c(F)c3)n2)cc1 [Compound 102, 4-(4-((4-tert-butylphenoxy)methyl)thiazol-2-ylamino)-2-fluoro-N-(thiazol-2-yl)benzenesulfonamide] | < 2000
2 | O=S(=O)(Nc1nccs1)c1ccc(Nc2nc(-c3ccc(Cl)cc3)cs2)cc1F [Compound 104, 4-(4-(4-chlorophenyl)thiazol-2-ylamino)-2-fluoro-N-(thiazol-2-yl)benzenesulfonamide] | > 1000
3 | O=S(=O)(Nc1nccs1)c1ccc(Nc2nc3ccccc3o2)cc1 [Compound 114, 4-(benzo[d]oxazol-2-ylamino)-N-(thiazol-2-yl)benzenesulfonamide] | 2000 to 10000
4 | CC(C)(C)c1csc(Nc2ccc(S(=O)(=O)Nc3nccs3)nc2)n1 [Compound 116, 5-(4-tert-butylthiazol-2-ylamino)-N-(thiazol-2-yl)pyridine-2-sulfonamide] | > 1000
5 | O=S(=O)(Nc1nccs1)c1ccc(Nc2nc3ccccc3s2)cc1 [Compound 117, 4-(benzo[d]thiazol-2-ylamino)-N-(thiazol-2-yl)benzenesulfonamide] | > 1000
6 | O=S(=O)(Nc1nccs1)c1ccc(Nc2nnc(Cc3ccc(Cl)cc3)o2)cc1 [Compound 118, 4-(5-(4-chlorobenzyl)-1,3,4-oxadiazol-2-ylamino)-N-(thiazol-2-yl)benzenesulfonamide] | > 1000
7 | Cn1nc(Cc2ccc(Cl)cc2)c(C#N)c1Nc1ccc(S(=O)(=O)Nc2nccs2)cc1 [Compound 119, 4-(3-(4-chlorobenzyl)-4-cyano-1-methyl-1H-pyrazol-5-ylamino)-N-(thiazol-2-yl)benzenesulfonamide] | 2000 to 10000
8 | O=S(=O)(Nc1nccs1)c1ccc(Nc2nnc(Cc3ccc(Cl)cc3)s2)cc1 [Compound 120, 4-(5-(4-chlorobenzyl)-1,3,4-thiadiazol-2-ylamino)-N-(thiazol-2-yl)benzenesulfonamide] | 2000 to 10000
9 | Cn1nc(Cc2ccc(Cl)cc2)c(C(N)=O)c1Nc1ccc(S(=O)(=O)Nc2nccs2)cc1 [Compound 121, 3-(4-chlorobenzyl)-1-methyl-5-(4-(N-thiazol-2-ylsulfamoyl)phenylamino)-1H-pyrazole-4-carboxamide] | > 1000
10 | Cc1nn(C)c(Nc2ccc(S(=O)(=O)Nc3nccs3)cc2)c1-c1ccccc1 [Compound 122, 4-(1,3-dimethyl-4-phenyl-1H-pyrazol-5-ylamino)-N-(thiazol-2-yl)benzenesulfonamide] | > 1000
11 | Cc1nn(C(C)(C)C)c(Nc2ccc(S(=O)(=O)Nc3nccs3)cc2)c1-c1ccccc1 [Compound 123, 4-(1-tert-butyl-3-methyl-4-phenyl-1H-pyrazol-5-ylamino)-N-(thiazol-2-yl)benzenesulfonamide] | > 1000
12 | Cc1n[nH]c(Nc2ccc(S(=O)(=O)Nc3nccs3)cc2)c1-c1ccccc1 [Compound 124, 4-(3-methyl-4-phenyl-1H-pyrazol-5-ylamino)-N-(thiazol-2-yl)benzenesulfonamide] | > 1000
13 | Cn1nc(CC(C)(C)C)cc1Nc1ccc(S(=O)(=O)Nc2nccs2)cc1 [Compound 125, 4-(1-methyl-3-neopentyl-1H-pyrazol-5-ylamino)-N-(thiazol-2-yl)benzenesulfonamide] | 2000 to 10000
14 | COc1ccc(Cc2cc(Nc3ccc(S(=O)(=O)Nc4nccs4)cc3)n(C)n2)cc1 [Compound 126, 4-(3-(4-methoxybenzyl)-1-methyl-1H-pyrazol-5-ylamino)-N-(thiazol-2-yl)benzenesulfonamide] | > 1000
15 | COc1ccccc1Cc1cc(Nc2ccc(S(=O)(=O)Nc3nccs3)cc2)n(C)n1 [Compound 127, 4-(3-(2-methoxybenzyl)-1-methyl-1H-pyrazol-5-ylamino)-N-(thiazol-2-yl)benzenesulfonamide] | 2000 to 10000
16 | Cc1cc(Nc2ccc(S(=O)(=O)Nc3nccs3)cc2)n(Cc2ccc(Cl)cc2)n1 [Compound 128, 4-(1-(4-chlorobenzyl)-3-methyl-1H-pyrazol-5-ylamino)-N-(thiazol-2-yl)benzenesulfonamide] | 2000 to 10000
17 | Cc1cc(Nc2ccc(S(=O)(=O)Nc3nccs3)cc2)n(Cc2ccncc2)n1 [Compound 131, 4-(3-methyl-1-(pyridin-4-ylmethyl)-1H-pyrazol-5-ylamino)-N-(thiazol-2-yl)benzenesulfonamide] | > 1000
18 | Cc1cc(Nc2ccc(S(=O)(=O)Nc3nccs3)cc2)n(CC2CCCCC2)n1 [Compound 132, 4-(1-(cyclohexylmethyl)-3-methyl-1H-pyrazol-5-ylamino)-N-(thiazol-2-yl)benzenesulfonamide] | > 1000
19 | O=C1CC(c2ccccc2)Cc2nc(Nc3ccc(S(=O)(=O)Nc4nccs4)cc3)sc21 (centres unmarked) [Compound 135, 4-(7-oxo-5-phenyl-4,5,6,7-tetrahydrobenzo[d]thiazol-2-ylamino)-N-(thiazol-2-yl)benzenesulfonamide] | > 1000
20 | CC1(C)CC(=O)c2sc(Nc3ccc(S(=O)(=O)Nc4nccs4)cc3)nc2C1 [Compound 136, 4-(5,5-dimethyl-7-oxo-4,5,6,7-tetrahydrobenzo[d]thiazol-2-ylamino)-N-(thiazol-2-yl)benzenesulfonamide] | > 1000

More lines, now with the values ahead:

Row | IC50 [nM] | Compound
21 | 2000 to 10000 | Cc1cc(Nc2ccc(S(=O)(=O)Nc3nccs3)cc2)n(-c2ccc(Cl)cc2)n1 [Compound 137, 4-(1-(4-chlorophenyl)-3-methyl-1H-pyrazol-5-ylamino)-N-(thiazol-2-yl)benzenesulfonamide]
22 | < 2000 | Cn1nc(Cc2ccc(C(F)(F)F)cc2)cc1Nc1ccc(S(=O)(=O)Nc2nccs2)cc1 [Compound 138, 4-(1-methyl-3-(4-(trifluoromethyl)benzyl)-1H-pyrazol-5-ylamino)-N-(thiazol-2-yl)benzenesulfonamide]
23 | < 2000 | Cn1nc(Cc2ccc(F)cc2F)cc1Nc1ccc(S(=O)(=O)Nc2nccs2)cc1 [Compound 139, 4-(3-(2,4-difluorobenzyl)-1-methyl-1H-pyrazol-5-ylamino)-N-(thiazol-2-yl)benzenesulfonamide]
24 | < 2000 | Cc1cc(Nc2ccc(S(=O)(=O)Nc3nccs3)c(F)c2)n(-c2ccc(Cl)cc2)n1 [Compound 140, 4-(1-(4-chlorophenyl)-3-methyl-1H-pyrazol-5-ylamino)-2-fluoro-N-(thiazol-2-yl)benzenesulfonamide]
25 | < 2000 | Cn1nc(Cc2ccc(Cl)cc2)cc1Nc1ccc(S(=O)(=O)Nc2nccs2)c(F)c1 [Compound 141, 4-(3-(4-chlorobenzyl)-1-methyl-1H-pyrazol-5-ylamino)-2-fluoro-N-(thiazol-2-yl)benzenesulfonamide]
26 | < 2000 | Cn1nc(C2(c3ccc(Cl)cc3)CC2)cc1Nc1ccc(S(=O)(=O)Nc2nccs2)cc1F [Compound 142, 4-(3-(1-(4-chlorophenyl)cyclopropyl)-1-methyl-1H-pyrazol-5-ylamino)-3-fluoro-N-(thiazol-2-yl)benzenesulfonamide]
27 | < 2000 | Cn1nc(Cc2ccc(Cl)cc2)cc1Nc1ccc(S(=O)(=O)Nc2nccs2)cc1F [Compound 143, 4-(3-(4-chlorobenzyl)-1-methyl-1H-pyrazol-5-ylamino)-3-fluoro-N-(thiazol-2-yl)benzenesulfonamide]
28 | < 2000 | O=S(=O)(Nc1nccs1)c1ccc(Nc2cc(C3CC3)nn2-c2ccccc2)cc1 [Compound 144, 4-(3-cyclopropyl-1-phenyl-1H-pyrazol-5-ylamino)-N-(thiazol-2-yl)benzenesulfonamide]
29 | 2000 to 10000 | Cn1ncc(-c2ccccc2)c1Nc1ccc(S(=O)(=O)Nc2nccs2)c(F)c1 [Compound 148, 2-fluoro-4-(1-methyl-4-phenyl-1H-pyrazol-5-ylamino)-N-(thiazol-2-yl)benzenesulfonamide]
